Results reported in patent US20230027864A1, “COMPOSITIONS AND METHODS FOR DELIVERY OF AGENTS TO IMMUNE CELLS” (ModernaTX, Inc., priority 2018, published 2023).

Legend:
[1] = tested on: CD3+ T cells; assay: T cell transfection in vitro with varied LNP components, mOX40L mRNA; format: cell-based, human; details: as ionizable lipid or PEG lipid component, Table 23
Experimental: In this example, human peripheral blood mononuclear cells (PBMCs) from two different Donors (Donor 1 and Donor 2) were incubated in the presence of mRNA encoding mouse OX40L (mOX40L) (20 ng or 50 ng) encapsulated in each of the three different LNP compositions tested in Example 3. PBS was used as a negative control. Human PBMCs were incubated ex vivo with the various LNPs at 37° C. After 24 hours, cells were analyzed by flow cytometry for mOX40L protein expression in CD3+ T cells.
In this Example, LNPs were made with various lipid components and at different ratios and were tested for their ability to transfect T cells in vitro. Transfection was performed as in Example 5 using LNPs encapsulating an mRNA encoding mouse OX40L.
In a first set of experiments, phytosterol was used as the immune cell delivery potentiating lipid and other lipid constituents of the LNP were varied.

[2] = tested on: T cells; assay: LNP association and GFP mRNA expression in T cells of human PBMCs; format: cell-based; details: PEG lipid component of the LNP, FIG. 33
Experimental: In a second series of experiments, additional compounds, were tested in the LNPs for their ability to enhance delivery to T cells. For these experiments, the association of the LNP with cells and the expression of mRNA-encoding protein within the transfected cells was assessed at the cell-by-cell level. Peripheral blood mononuclear cells (PBMCs) from human donors were used. PBMCs were predominately T cells (40-60%), B cells (3-15%), and monocytes (15-35%), but also contained small numbers of other cell types. LNPs were incubated with serum or PBS for 30 minutes and then added to the PBMCs. The LNP concentration was 0.050 mg/ml, the LNP volume was 0.1 ml.
LNPs contained 0.1% Rhodamine-DOPE in addition to the other LNP components to facilitate detection. Thus, the ratios set forth in the tables below include 0.1 for the rhodamine label. For example, 50:10:10:27.9:2:0.1 AL:DSPC:chol:sterol:Cmp 428 indicates 50% amino lipid as the ionizable lipid, 10% DSPC as the phospholipid, 10% cholesterol, 27.9% phytosterol, 2% Compound 428 as the PEG lipid and 0.1% for the rhodamine-DOPE label. To prepare a non-labeled LNP, the same ratios are used except that the 0.1% rhodamine label is omitted and an additional 0.1% of structural lipid (cholesterol or cholesterol/phytosterol blend) is used (e.g., 27.9% becomes 28%).
Cells were sorted by flow cytometry into subsets based on expression of certain markers: CD3 (T cells), CD20 (B cells), and CD3-, CD20-, CD14+(Monocytes).
mRNA encoding GFP was used as a model agent to effect expression of an intracellular protein.
When conducting flow cytometry, the Y-axis was signal from the rhodamine tag on the LNP and the X-axis was the GFP signal showing expression of the protein.
The “associated” population is any rhodamine+ and/or GFP+ cell and the percent of these cells was calculated by dividing by the total number of cells. The “expression” population is any GFP+ cell and the percent of these cells was calculated by dividing by the total number of cells. The percent of associated cells expressing was obtained by dividing the % expressing cells by the % associated cells.

[3] = tested on: monocytes; assay: Sterol panel in LNPs, delivery in vivo (FIG. 40); details: Cmpd X/sterol/Cmpd 428 LNPs, Y-axis percentage of CD3+ cells in spleen expressing mOX40L
Experimental: In a second series of experiments, an additional panel of sterol compounds was tested in LNPs for monocyte delivery in vivo. The results for this panel of sterols tested for the structural lipid component of the LNP are shown in the bar graph of FIG. 40. […] The bars/lanes on the X-axis labeled 1-9 correspond to the following LNP compositions tested for mRNA delivery in vivo: Lane 1 is PBS. Lane 2 is Cmpd X/Cmpd 428, Lane 3 is Cmpd X/β sitosterol/Cmpd 428, Lane 4 is Cmpd X/β-sitosterol-d7/Cmpd 428, Lane 5 is Cmpd X/brassicasterol/Cmpd 428, Lane 6 is Cmpd X/unnamed sterol/Cmpd 428, Lane 7 is Cmpd X/Cmpd S-30/Cmpd 428, Lane S is Cmpd X/Cnpd S-32/Cmpd 428, Lane 9 is Cmpd X/Cmpd S-31/Cmpd 428.

[4] = tested on: T cells; assay: LNP association and GFP mRNA expression in T cells of human PBMCs; format: cell-based; details: third series, in vitro, FIG. 35

Row | Compound | delivery to T cells with phytosterol-containing LNP [1] | immune cell delivery potentiating ability in T cells, PEG lipid panel [2] | immune cell delivery potentiating ability in monocytes, additional sterol panel in vivo [3] | immune cell delivery potentiating ability in T cells, additional sterol panel [4]
1 | CCCCCCCCCCCCCCCCCC(=O)OCCOCCOCCOCCOCCOCCOCCOCCOCCOCCOCCOCCOCCOCCOCCOCCOCCOCCOCCOCCOCCOCCOCCOCCOCCOCCOCCOCCOCCOCCOCCOCCOCCOCCOCCOCCOCCOCCOCCOCCOCCOCCOCCOCCOCCO [Compound 428] | enhanced delivery to T cells | exhibited immune cell delivery potentiating ability in T cells |  | 
2 | CC(C)[C@@H](C)/C=C/[C@@H](C)[C@H]1CC[C@H]2[C@@H]3CC=C4C[C@@H](O)CC[C@]4(C)[C@H]3CC[C@]12C [brassicasterol] |  |  | exhibited immune cell delivery potentiating ability in monocytes | exhibited immune cell delivery potentiating ability in T cells
